The values that follow come from patent US11034650B2, “Compounds useful for treating a Mannheimia haemolytica or Histophilus somni infection” (Intervet Inc., priority 2016, dated 2021).

≈ marks a conversion by molar mass, not a printed value. Some results are limits rather than exact numbers.

One assay deals with Pasteurella multocida PM 6267 (P 2225 (L386), reference strain, mouse infection strain). As to the kind of experiment: MIC, broth-microdilution (CLSI VET01-A4), strain PM 6267. The format is cell-based. The conditions noted are these: Pasteurella multocida strain PM 6267, broth-microdilution; unit assumed. The procedure:
(§1) For example, representative compounds were tested against ***, Mannheimia haemolytica and Pasteurella multocida, using the conventional broth-dilution assay.
(§2) The Minimum inhibitory concentrations (MIC) of compounds according to the invention for a number of veterinary bacterial pathogens were determined by the broth-microdilution method according to CLSI document VET01-A4.
(§3) Microdilution trays containing a doubling dilution series of the test compound were used for the tests. The MIC results were interpreted according to the CLSI documents VET01-S3. The lowest concentration of compound at which no visible growth (i.e. no turbidity) detected by the unaided eye was recorded as the MIC.
A general note: Dilution methods test growth across graded concentrations, often in twofold steps.
Turning to `O=C(N[C@@H](CO)C(=O)NO)c1ccc(C#Cc2ccc(CN3CCS(=O)(=O)CC3)cc2)cc1` [Compound 78], the MIC PM 6267 was no more than 0.1 µg/mL.

In turn, `COCCNCc1ccc(C#Cc2ccc(C(=O)N[C@H](C(=O)NO)C(C)C)cc2)cc1` [Compound 96] yielded an MIC PM 6267 of 0.2 µg/mL (≈ 0.472 µM).

For the molecule `CC[C@H](C)[C@H](NC(=O)c1ccc(C#Cc2ccc(CNCc3ccncc3)cc2)cc1)C(=O)NO` [Compound 132], the MIC PM 6267 is no more than 0.1 µg/mL.

Take `CN(Cc1ccccc1)Cc1ccc(C#Cc2ccc(C(=O)N[C@@H](CO)C(=O)NO)cc2)cc1` [Compound 86]: the MIC PM 6267 is no more than 0.1 µg/mL.

The test system of the next assay is Mannheimia haemolytica MH 12587 (1071, BRD field isolate, macrolide-resistance: erm+, E+). The assay can be described thus: MIC, broth-microdilution (CLSI VET01-A4), strain MH 12587. The format is cell-based. Particulars: Mannheimia haemolytica strain MH 12587, broth-microdilution; unit assumed. The procedure: as §1, §2, §3
Take `O=C(N[C@@H](CO)C(=O)NO)c1ccc(C#Cc2ccc(CN3CCS(=O)(=O)CC3)cc2)cc1` [Compound 78]: the MIC MH 12587 was found to be 12.5 µg/mL (≈ 26.5 µM).

As to `COCCNCc1ccc(C#Cc2ccc(C(=O)N[C@H](C(=O)NO)C(C)C)cc2)cc1` [Compound 96], the MIC MH 12587 amounted to 12.5 µg/mL (≈ 29.5 µM).

`CC[C@H](C)[C@H](NC(=O)c1ccc(C#Cc2ccc(CNCc3ccncc3)cc2)cc1)C(=O)NO` [Compound 132] displayed an MIC MH 12587 of 0.8 µg/mL (≈ 1.7 µM).

In the case of `CN(Cc1ccccc1)Cc1ccc(C#Cc2ccc(C(=O)N[C@@H](CO)C(=O)NO)cc2)cc1` [Compound 86], the MIC MH 12587 is 3.1 µg/mL (≈ 6.78 µM).

In another assay the test system is Pasteurella multocida PM 12080 (IV102277-0093, BRD field isolate). The assay can be described thus: MIC, broth-microdilution (CLSI VET01-A4), strain PM 12080. The format is cell-based. The conditions noted are these: Pasteurella multocida strain PM 12080, broth-microdilution; unit assumed. The procedure: as §1, §2, §3
`O=C(N[C@@H](CO)C(=O)NO)c1ccc(C#Cc2ccc(CN3CCS(=O)(=O)CC3)cc2)cc1` [Compound 78]: the MIC PM 12080 came out at 0.8 µg/mL (≈ 1.7 µM).

`COCCNCc1ccc(C#Cc2ccc(C(=O)N[C@H](C(=O)NO)C(C)C)cc2)cc1` [Compound 96] yielded an MIC PM 12080 of 0.8 µg/mL (≈ 1.89 µM).

`CC[C@H](C)[C@H](NC(=O)c1ccc(C#Cc2ccc(CNCc3ccncc3)cc2)cc1)C(=O)NO` [Compound 132] showed an MIC PM 12080 of 0.4 µg/mL (≈ 0.85 µM).

`CN(Cc1ccccc1)Cc1ccc(C#Cc2ccc(C(=O)N[C@@H](CO)C(=O)NO)cc2)cc1` [Compound 86]: the MIC PM 12080 turned out to be 0.8 µg/mL (≈ 1.75 µM).

In another assay the test system is Mannheimia haemolytica MH 6374 (ATCC 33396, reference strain). The assay can be described thus: MIC, broth-microdilution (CLSI VET01-A4), strain MH 6374. The format is cell-based. Particulars: Mannheimia haemolytica strain MH 6374, broth-microdilution; unit assumed. The procedure:
as §1, §2, §3
Molecule `O=C(N[C@@H](CO)C(=O)NO)c1ccc(C#Cc2ccc(CN3CCS(=O)(=O)CC3)cc2)cc1` [Compound 78] registered an MIC MH 6374 of 6.3 µg/mL (≈ 13.4 µM).

As to `COCCNCc1ccc(C#Cc2ccc(C(=O)N[C@H](C(=O)NO)C(C)C)cc2)cc1` [Compound 96], the MIC MH 6374 is 0.8 µg/mL (≈ 1.89 µM).

Molecule `CC[C@H](C)[C@H](NC(=O)c1ccc(C#Cc2ccc(CNCc3ccncc3)cc2)cc1)C(=O)NO` [Compound 132] registered an MIC MH 6374 of 0.8 µg/mL (≈ 1.7 µM).

The molecule `CN(Cc1ccccc1)Cc1ccc(C#Cc2ccc(C(=O)N[C@@H](CO)C(=O)NO)cc2)cc1` [Compound 86] had an MIC MH 6374 of 0.8 µg/mL (≈ 1.75 µM).

The test system of the next assay is Mannheimia haemolytica MH 13093 (XB0472-6014.1, BRD field isolate). As to the kind of experiment: MIC, broth-microdilution (CLSI VET01-A4), strain MH 13093. The format is cell-based. The conditions noted are these: Mannheimia haemolytica strain MH 13093, broth-microdilution; unit assumed. The procedure: as §1, §2, §3
Molecule `O=C(N[C@@H](CO)C(=O)NO)c1ccc(C#Cc2ccc(CN3CCS(=O)(=O)CC3)cc2)cc1` [Compound 78] showed an MIC MH 13093 of 6.3 µg/mL (≈ 13.4 µM).

As for `COCCNCc1ccc(C#Cc2ccc(C(=O)N[C@H](C(=O)NO)C(C)C)cc2)cc1` [Compound 96], the MIC MH 13093 was 3.1 µg/mL (≈ 7.32 µM).

Regarding `CC[C@H](C)[C@H](NC(=O)c1ccc(C#Cc2ccc(CNCc3ccncc3)cc2)cc1)C(=O)NO` [Compound 132], the MIC MH 13093 was found to be 0.8 µg/mL (≈ 1.7 µM).

For `CN(Cc1ccccc1)Cc1ccc(C#Cc2ccc(C(=O)N[C@@H](CO)C(=O)NO)cc2)cc1` [Compound 86], the MIC MH 13093 worked out at 3.1 µg/mL (≈ 6.78 µM).

A further assay relates to Mannheimia haemolytica MH 6357 (M7/2, reference strain, cattle infection strain). As to the kind of experiment: MIC, broth-microdilution (CLSI VET01-A4), strain MH 6357. The format is cell-based. The conditions noted are these: Mannheimia haemolytica strain MH 6357, broth-microdilution; unit assumed. The method, then: as §1, §2, §3
As for `O=C(N[C@@H](CO)C(=O)NO)c1ccc(C#Cc2ccc(CN3CCS(=O)(=O)CC3)cc2)cc1` [Compound 78], the MIC MH 6357 was found to be 6.3 µg/mL (≈ 13.4 µM).

`COCCNCc1ccc(C#Cc2ccc(C(=O)N[C@H](C(=O)NO)C(C)C)cc2)cc1` [Compound 96] displayed an MIC MH 6357 of 3.1 µg/mL (≈ 7.32 µM).

Regarding `CC[C@H](C)[C@H](NC(=O)c1ccc(C#Cc2ccc(CNCc3ccncc3)cc2)cc1)C(=O)NO` [Compound 132], the MIC MH 6357 was determined as 1.6 µg/mL (≈ 3.4 µM).

In turn, `CN(Cc1ccccc1)Cc1ccc(C#Cc2ccc(C(=O)N[C@@H](CO)C(=O)NO)cc2)cc1` [Compound 86] had an MIC MH 6357 of 1.6 µg/mL (≈ 3.5 µM).

The next assay has as its system Mannheimia haemolytica MH 10720 (154, BRD field isolate). As to the kind of experiment: MIC, broth-microdilution (CLSI VET01-A4), strain MH 10720. Particulars: Mannheimia haemolytica strain MH 10720, broth-microdilution; unit assumed. The format is cell-based. The procedure: as §1, §2, §3
On to `O=C(N[C@@H](CO)C(=O)NO)c1ccc(C#Cc2ccc(CN3CCS(=O)(=O)CC3)cc2)cc1` [Compound 78], for which the MIC MH 10720 worked out at 3.1 µg/mL (≈ 6.57 µM).

Regarding `COCCNCc1ccc(C#Cc2ccc(C(=O)N[C@H](C(=O)NO)C(C)C)cc2)cc1` [Compound 96], the MIC MH 10720 turned out to be 0.8 µg/mL (≈ 1.89 µM).

As for `CC[C@H](C)[C@H](NC(=O)c1ccc(C#Cc2ccc(CNCc3ccncc3)cc2)cc1)C(=O)NO` [Compound 132], the MIC MH 10720 is 0.2 µg/mL (≈ 0.425 µM).

Molecule `CN(Cc1ccccc1)Cc1ccc(C#Cc2ccc(C(=O)N[C@@H](CO)C(=O)NO)cc2)cc1` [Compound 86] had an MIC MH 10720 of 0.4 µg/mL (≈ 0.874 µM).

In a further assay the test system is Mannheimia haemolytica MH 13065 (XB0446-6003.9, BRD field isolate). The assay can be described thus: MIC, broth-microdilution (CLSI VET01-A4), strain MH 13065. The format is cell-based. Particulars: Mannheimia haemolytica strain MH 13065, broth-microdilution; unit assumed. The procedure: as §1, §2, §3
Take `O=C(N[C@@H](CO)C(=O)NO)c1ccc(C#Cc2ccc(CN3CCS(=O)(=O)CC3)cc2)cc1` [Compound 78]: the MIC MH 13065 was determined as 6.3 µg/mL (≈ 13.4 µM).

`COCCNCc1ccc(C#Cc2ccc(C(=O)N[C@H](C(=O)NO)C(C)C)cc2)cc1` [Compound 96] showed an MIC MH 13065 of 1.6 µg/mL (≈ 3.78 µM).

On to `CC[C@H](C)[C@H](NC(=O)c1ccc(C#Cc2ccc(CNCc3ccncc3)cc2)cc1)C(=O)NO` [Compound 132], for which the MIC MH 13065 came to 0.8 µg/mL (≈ 1.7 µM).

As to `CN(Cc1ccccc1)Cc1ccc(C#Cc2ccc(C(=O)N[C@@H](CO)C(=O)NO)cc2)cc1` [Compound 86], the MIC MH 13065 turned out to be 1.6 µg/mL (≈ 3.5 µM).

A further assay concerns Pasteurella multocida PM 10775 (080130003051, BRD field isolate). As to the kind of experiment: MIC, broth-microdilution (CLSI VET01-A4), strain PM 10775. The format is cell-based. The conditions noted are these: Pasteurella multocida strain PM 10775, broth-microdilution; unit assumed. The procedure: as §1, §2, §3
For `O=C(N[C@@H](CO)C(=O)NO)c1ccc(C#Cc2ccc(CN3CCS(=O)(=O)CC3)cc2)cc1` [Compound 78], the MIC PM 10775 was no more than 0.1 µg/mL.

`COCCNCc1ccc(C#Cc2ccc(C(=O)N[C@H](C(=O)NO)C(C)C)cc2)cc1` [Compound 96] yielded an MIC PM 10775 of no more than 0.1 µg/mL.

The molecule `CC[C@H](C)[C@H](NC(=O)c1ccc(C#Cc2ccc(CNCc3ccncc3)cc2)cc1)C(=O)NO` [Compound 132] gave an MIC PM 10775 of no more than 0.1 µg/mL.

The molecule `CN(Cc1ccccc1)Cc1ccc(C#Cc2ccc(C(=O)N[C@@H](CO)C(=O)NO)cc2)cc1` [Compound 86] gave an MIC PM 10775 of no more than 0.1 µg/mL.
